Test results reported in patent publication EP1210350B1, “WATER SOLUBLE SDZ-RAD ESTERS” (Wyeth, priority 1999, dated 2001).
≈ marks a conversion by molar mass, not a printed value. Like-named read-outs stand apart in the source and are kept apart here.

System: U87MG Human Glioblastoma (ATCC # HTB-14)
Assay: 3H thymidine incorporation in U87MG human glioblastoma cells
Format: cell-based
Conditions: 48 hours incubation with compound, 3H thymidine for the last 5 hours
Protocol: U87MG Human Glioblastoma (ATCC # HTB-14)
3H Thymidine Incorporation Protocol
• Growth Medium: BRL Minimum Essential Medium with Earle Salts (500 ml) + 5mLBRL MEM Non-Essential Amino Acids (10mM) +5 mLBRL Penicillin-Streptomycin (10000u/ml,10000ug/ml) +5mLBRL Na Pyruvate Solution (100mM) +5mLBRL L-Glutamine 200mM +50mLBRL Fetal Bovine Serum (Qualified) • Assay: • 1. Cells were trypsinized and plated at a concentration of 10^4 cells/well in a final volume of 200 µl growth medium in 96-well flat bottom plates and allowed to adhere for 24 hours at 37°C. • 2. The media was removed by aspiration with care to not disturb the cell monolayer. 200 µl of fresh growth media was added per well, allowing enough wells for samples to be run in triplicate. Compounds were added in 10 µl PBS solutions and incubated for another 48 hours at 37°C. • 3. During the last 5 hours of incubation, plates were labeled with 1µCi 3H thymidine per well. (NEN thymidine, catalog # NET-027, 6.7 Ci/mmole). The 1µCi was added in 10 µl of PBS (on the day of harvest.). The plates were returned to the incubator for the last 5 hours. • 4. The radioactive media was removed by aspiration, with care not to disturb the cell monolayer. 50 µl of BRL 10X Trypsin was added to each well, followed by incubation at 37°C for 10 minutes or until the monolayer was loosened from the well bottom. […] Mats were counted in a Wallac Betaplate counter.

Row | IC50 (Homo sapiens, U-87 MG, read-out: IC50) [ng/mL] | IC50 [ng/mL] | Structure (SMILES)
1 | 0.5 (≈ 0.547 nM) |  | CO[C@H]1C[C@@H]2CC[C@@H](C)[C@@](O)(O2)C(=O)C(=O)N2CCCC[C@H]2C(=O)O[C@H]([C@H](C)C[C@@H]2CC[C@@H](O)[C@H](OC)C2)CC(=O)[C@H](C)/C=C(\C)[C@@H](O)[C@@H](OC)C(=O)[C@H](C)C[C@H](C)/C=C/C=C/C=C/1C [Rapamycin]
2 |  | 2.0 (≈ 2.09 nM) | CO[C@H]1C[C@@H]2CC[C@@H](C)[C@@](O)(O2)C(=O)C(=O)N2CCCC[C@H]2C(=O)O[C@H]([C@H](C)C[C@@H]2CC[C@@H](OCCO)[C@H](OC)C2)CC(=O)[C@H](C)/C=C(\C)[C@@H](O)[C@@H](OC)C(=O)[C@H](C)C[C@H](C)/C=C/C=C/C=C/1C [SDZ-RAD, 40-O-(2-hydroxy)ethyl-rapamycin]
